Patent US20260327263A1, “Anti-Bacterial Peptides” (priority 2023, published 2026)
Values after ≈ are worked out from the molar mass of the structure shown. Values joined by “and” are separate entries in the source; they are usually repeats but may differ in a detail not shown here. Equal entries are not always repeated. Where two headings read alike, the source gives them in different places. Where a SMILES comes first, the peptide text is derived from it. Where no end group is shown, it is not given here. [ ]: non-standard residue; d: D form. d2Nal = N[C@H](Cc1ccc2ccccc2c1)C(=O)O

How the values were obtained:
[1] = system: Staphylococcus aureus (SA); experiment: Broth microdilution anti-bacterial assay (CLSI), Staphylococcus aureus; format: cell-based
Experimental: (§1) To evaluate their anti-bacterial potency, broth microdilution method as per the CLSI guidelines 1 was used. […] The anti-bacterial potency of the tested agents is quantified using minimum inhibitory concentration (MIC) and minimum bactericidal concentration (MBC). […] To obtain the MBC data, 1X, 2X and 4× MIC of the peptide variants were plated to obtain the number of viable colonies compared to the original inoculum.
(§2) Pseudomonas aeruginosa (ATCC 14213, PA), and methicillin resistant Staphylococcus aureus (BAA1717-USA 300, SA) were obtained from The American Type Culture Collection (ATCC).
(§3) Examination of the potency of modified short peptides against PA and SA strains was performed by using the broth microdilution protocol from the Clinical and Laboratory Standards Institute (CLSI) guidelines (CLSI 2012) as described. Briefly, five freshly plated bacteria colonies were grown in cation adjusted MH2 broth (BD Biosciences) in a shaker incubator at 37° C., 220 RPM. Cells were grown to an optical density (OD600) of ~0.2 measured using a Microplate Spectrophotometer (Molecular Devices Spectra Max Plus). 100 μL of microbial culture containing ~5×10^5 CFU/mL of bacteria in the respective broths were introduced into each well containing 100 μL of peptides and incubated overnight at 37° C. Next, to check the bactericidal effects, 100 μL from each well was transferred and spread on sterile MH2 agar plates. The plates were incubated overnight at 37° C. and the number of colonies forming units (CFU) were calculated the following day. Readings of bacteria grown in media without any treatments were normalized to 100% as media control. For the mixed infection study, three freshly plated bacteria colonies each from PA, SA and ST plates were grown together in cation adjusted MH2 broth and proceeded as described above.

[2] = system: Pseudomonas aeruginosa (PA); experiment: Broth microdilution anti-bacterial assay (CLSI), Pseudomonas aeruginosa; format: cell-based, Pseudomonas aeruginosa (ATCC 14213)
Experimental: as §1, §2, §3

[3] = system: Pseudomonas aeruginosa PA CRM-9027; experiment: Broth microdilution, PA CRM-9027 (ear-eye infections); format: cell-based, Pseudomonas aeruginosa (CRM-9027); details: Pseudomonas aeruginosa, PACRM9027
Experimental: (§4) Bacteria strains involved in lung infection in cystic fibrosis patients (PA-BAA 2110) and ear-eye infections (PA-CRM 9027) are treated with exemplary variant peptides, such as E1AM2 and Q19L.
as §3

[4] = system: Pseudomonas aeruginosa PA BAA-2110; experiment: Broth microdilution, PA BAA-2110 (lung infection in cystic fibrosis); format: cell-based, Pseudomonas aeruginosa (BAA-2110); details: Pseudomonas aeruginosa, BAA2110
Experimental: as §4, §3

[5] = system: Pseudomonas aeruginosa (PA); experiment: Antimicrobial resistance evolution assay, PA; format: cell-based; details: for development of antimicrobial resistance, PA: serial passaging, 28 days, resistance = >4-fold MIC change
Excerpt: The development of antimicrobial resistance is defined by greater than a 4-fold change to their initial minimum inhibitory concentration (MIC) at day 1. Exemplary bacteria strains Pseudomonas aeruginosa (PA) and Staphylococcus aureus (SA) are subjected to continuous daily serial passaging over several days, with treatment of exemplary variant peptides E1AM2 (SEQ ID NO: 2) and Q19L (SEQ ID NO: […]) at subinhibitory concentrations. […] The treatments were discontinued when the MIC increased by more than four-fold from the initial MIC or when MIC reached >100 μM.
Briefly, sequential passaging of PA, and SA cells was done with sub-inhibitory concentrations of antibiotics or E1AM2 up to 4 weeks. The cells grown in those concentrations of antibiotics or peptides were diluted to A600 nm (OD600) of ~0.2 and serially passaged daily with the same concentrations at 37° C. with agitation at 24 h intervals.

[6] = system: mixed bacterial infection (PA, SA and ST); experiment: Broth microdilution, mixed bacterial infection; format: cell-based
Experimental: Chronic wounds mostly present mixed infections where numerous pathogens colonize together.
as §3

[7] = system: Pseudomonas aeruginosa (PA); experiment: Combination of peptide with antibiotics against PA; format: cell-based; details: with gentamicin and piperacillin
Excerpt: In view of the results above, the peptide variants as described herein show synergistic anti-bacterial effects when used in combination with antibiotics.
In some examples, the methods described herein further comprises administering an antibiotic agent to the subject.

[8] = SA, overnight, 37° C., ≥99% inhibition
[9] = PA, overnight, 37° C., ≥99% inhibition

**Q.** `CN[C@@H]1[C@@H](O)C(O[C@@H]2[C@@H](O)[C@H](O[C@H]3O[C@H]([C@@H](C)NC)CC[C@H]3N)[C@@H](N)C[C@H]2N)OC[C@]1(C)O` (stereo partly drawn) [Gentamicin, (3R,4R,5R)-2-{[(1S,2S,3R,4S,6R)-4,6-diamino-3-{[(2R,3R,6S)-3-amino-6-[(1R)-1-(methylamino)ethyl]oxan-2-yl]oxy}-2-hydroxycyclohexyl]oxy}-5-methyl-4-(methylamino) oxane-3,5-diol] was tested. Which MBC ([1]; Staphylococcus aureus) did it give?
**A.** The MBC was 3.25 µM (≈ 1.55 µg/mL).

**Q.** What about the MIC ([1]; Staphylococcus aureus) of the same compound?
**A.** The MIC was 1.56 µM (≈ 0.745 µg/mL).

**Q.** And the MBC ([2]; Pseudomonas aeruginosa)?
**A.** Its MBC is 6.25 µM (≈ 2.99 µg/mL).

**Q.** And the MIC ([2]; Pseudomonas aeruginosa)?
**A.** Its MIC is 3.12 µM (≈ 1.49 µg/mL).

**Q.** What about the MBC [3] of the same compound?
**A.** Its MBC is 12.5 µM (≈ 5.97 µg/mL).

**Q.** What about the MIC [3] of the same compound?
**A.** Its MIC is 6.25 µM (≈ 2.99 µg/mL).

**Q.** And the MBC [4]?
**A.** Its MBC is 25 µM (≈ 11.9 µg/mL).

**Q.** And the MIC [4]?
**A.** Its MIC is 25 µM (≈ 11.9 µg/mL).

**Q.** What about the “AMR prevention / resistance induction” value ([5]; Table 15: in PA and SA, bacteria not named) of the same compound?
**A.** The value was “induced resistance development in bacteria”.

**Q.** And the “development of antimicrobial resistance, PA” value (“development” below) [5]?
**A.** Its value is “developed resistance”.

**Q.** And the MIC [6]?
**A.** Its MIC is 3.12 µM (≈ 1.49 µg/mL).

**Q.** And the MBC ([6]; mixed infection)?
**A.** The MBC was 6.25 µM and 6.26 µM.

**Q.** `CCN1CCN(C(=O)N[C@@H](C(=O)N[C@@H]2C(=O)N3[C@@H]2SC(C)(C)[C@@H]3C(=O)O)c2ccccc2)C(=O)C1=O` [Piperacillin, (2S,5R,6R)-6-{[(2R)-2-[(4-ethyl-2,3-dioxo-piperazine-1-carbonyl)amino]-2-phenyl-acetyl]amino}-3,3-dimethyl-7-oxo-4-thia-1-azabicyclo[3.2.0]heptane-2-carboxylic acid] was tested. Which MBC ([1]; Staphylococcus aureus) did it give?
**A.** Its MBC is 12.5 µM (≈ 6.47 µg/mL).

**Q.** What about the MIC ([1]; Staphylococcus aureus) of the same compound?
**A.** The MIC was 6.25 µM (≈ 3.23 µg/mL).

**Q.** What about the MBC ([2]; Pseudomonas aeruginosa) of the same compound?
**A.** Its MBC is 50 µM (≈ 25.9 µg/mL).

**Q.** And the MIC ([2]; Pseudomonas aeruginosa)?
**A.** The MIC was 25 µM (≈ 12.9 µg/mL).

**Q.** And the MBC [3]?
**A.** Its MBC is 6.25 µM (≈ 3.23 µg/mL).

**Q.** And the MIC [3]?
**A.** Its MIC is 6.25 µM (≈ 3.23 µg/mL).

**Q.** What about the MBC [4] of the same compound?
**A.** Its MBC is 25 µM (≈ 12.9 µg/mL).

**Q.** And the MIC [4]?
**A.** The MIC was 12.5 µM (≈ 6.47 µg/mL).

**Q.** What about the “development” value [5] of the same compound?
**A.** Its value is “developed resistance”.

**Q.** What about the MIC [6] of the same compound?
**A.** Its MIC is 25 µM (≈ 12.9 µg/mL).

**Q.** And the MBC ([6]; mixed infection)?
**A.** The MBC was 25 µM (≈ 12.9 µg/mL).

**Q.** How did the MBC ([1]; Staphylococcus aureus) turn out when `CO/N=C(\C(=O)N[C@@H]1C(=O)N2C(C(=O)[O-])=C(C[N+]3(C)CCCC3)CS[C@H]12)c1csc(N)n1` [Cefepime] was run?
**A.** Its MBC is 25 µM (≈ 12 µg/mL).

**Q.** And the MIC ([1]; Staphylococcus aureus)?
**A.** Its MIC is 12.5 µM (≈ 6.01 µg/mL).

**Q.** What about the MBC ([2]; Pseudomonas aeruginosa) of the same compound?
**A.** Its MBC is 25 µM (≈ 12 µg/mL).

**Q.** What about the MIC ([2]; Pseudomonas aeruginosa) of the same compound?
**A.** The MIC was 12.5 µM (≈ 6.01 µg/mL).

**Q.** And the MBC [3]?
**A.** Its MBC is 1.56 µM (≈ 0.75 µg/mL).

**Q.** And the MIC [3]?
**A.** Its MIC is 1.56 µM (≈ 0.75 µg/mL).

**Q.** And the MBC [4]?
**A.** The MBC was 25 µM (≈ 12 µg/mL).

**Q.** And the MIC [4]?
**A.** Its MIC is 12.5 µM (≈ 6.01 µg/mL).

**Q.** What about the “development” value [5] of the same compound?
**A.** Its value is “developed resistance”.

**Q.** What about the MIC [6] of the same compound?
**A.** The MIC was 12.5 µM (≈ 6.01 µg/mL).

**Q.** And the MBC ([6]; mixed infection)?
**A.** The MBC was 12.5 µM (≈ 6.01 µg/mL).

**Q.** What does the source list for KKLLKKWVKLSKKALKLAQSL-NH2 [E1AM2-NH2]?
**A.** MIC [1, 8]: 6.25 µM; MBC ([1]; SA, ≥99% killing): 12.5 µM; MIC [2, 9]: 3.125 µM; MBC ([2]; PA, ≥99% killing): 6.25 µM; MBC ([6]; mixed infection): 6.25 µM; MIC ([6]; mixed infection): 6.25 µM

**Q.** For `CC(C)C[C@@H](NC(=O)[C@@H](C)NC(=O)[C@@H](CC(C)C)NC(=O)[C@@H](CCCCN)NC(=O)[C@@H](CC(C)C)NC(=O)[C@@H](C)NC(=O)[C@@H](CCCCN)NC(=O)[C@@H](CCCCN)NC(=O)[C@@H](CO)NC(=O)[C@@H](CC(C)C)NC(=O)[C@@H](CCCCN)NC(=O)[C@@H](CC(C)C)NC(=O)[C@@H](Cc1ccc2ccccc2c1)NC(=O)[C@@H](CCCCN)NC(=O)[C@@H](CCCCN)NC(=O)[C@@H](CC(C)C)NC(=O)[C@@H](CC(C)C)NC(=O)[C@@H](CCCCN)NC(=O)[C@H](N)CCCCN)C(N)=O` [E1AM2 D-W72Nal V8L Q19L C-2-NH2] (H-[dK][dK][dL][dL][dK][dK][d2Nal][dL][dK][dL][dS][dK][dK][dA][dL][dK][dL][dA][dL]-NH2), which MIC [1, 8] is on record?
**A.** The MIC was 1.56 µM (≈ 3.53 µg/mL).

**Q.** What about the MBC ([1]; SA, ≥99% killing) of the same compound?
**A.** Its MBC is 1.56 µM (≈ 3.53 µg/mL).

**Q.** What about the MIC [2, 9] of the same compound?
**A.** The MIC was 1.56 µM (≈ 3.53 µg/mL).

**Q.** And the MBC ([2]; PA, ≥99% killing)?
**A.** Its MBC is 1.56 µM (≈ 3.53 µg/mL).

**Q.** What about the “MBC in combination with gentamicin and piperacillin” value [7] of the same compound?
**A.** Its value is “reduced minimum bactericidal concentration (MBC)”.

**Q.** What about the “MIC in combination with gentamicin and piperacillin” value [7] of the same compound?
**A.** The value was “reduced minimum inhibitory concentration (MIC)”.

**Q.** What does the source list for `O=C(O)c1cn(C2CC2)c2cc(N3CCNCC3)c(F)cc2c1=O` [Ciprofloxacin, 1-cyclopropyl-6-fluoro-4-oxo-7-(piperazin-1-yl)-quinoline-3-carboxylic acid]?
**A.** development of antimicrobial resistance, PA [5]: developed resistance; MBC ([6]; mixed infection): 25 µM (≈ 8.28 µg/mL)
